In PMC12040169 (PLOS Biology, 2025):

Key:
in vitro [1] = settings: human, hela cells, % viability
[2] = tested on: T1, CTL2-GFP (C. trachomatis L2/434/Bu, GFP-expressing); test: microbe, parasite or virus in culture; design: Intracellular C. trachomatis growth in HeLa cells, bulk GFP fluorescence relative to DMSO; settings: Chlamydia trachomatis, HeLa, 28.5 h; bulk GFP, mean of 2; read-out: % of control remaining
T1 construct: L2/434/Bu, GFP-expressing
Protocol: MICs were calculated as described above.

[3] = tested on: T2, C. trachomatis L2/434/Bu expressing GFP (CTL2-GFP); test: microbe, parasite or virus in culture; design: C. trachomatis total inclusion area by high-content imaging, normalised to DMSO; settings: Chlamydia trachomatis, HeLa, 28.5 h; total inclusion area; read-out: % of control remaining
T2 construct: L2/434/Bu GFP intracellular growth in HeLa cells
Method in brief: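 Screening measures GFP fluorescence from the reporter strain and resorufin fluorescence for host viability, with Hoechst-based imaging of fixed cells adding inclusion area, inclusion number and nuclei count per well.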

in vitro [4] = test: in vitro; design: Viability of infected HeLa host cells, resazurin conversion, bulk resorufin fluorescence relative to DMSO; settings: human, hela cells; bulk resorufin, mean of 2

Clc1ccc2nc(-c3ccccn3)[nH]c2c1 [CBK000116]
viability at 28.5 h, 10 µM (in vitro [1]): 83.8%
activity at 1 µM [2]: 75%
activity at 5 µM [2]: 13.8%
activity at 10 µM [2]: 1.74%
activity at 1 µM [3]: 70.7%
activity at 5 µM [3]: 9.19%
activity at 10 µM [3]: 1.69%
viability at 28.5 h, 1 µM (in vitro [4]): 111%
viability at 28.5 h, 5 µM (in vitro [4]): 104%
viability at 28.5 h, 10 µM (in vitro [4]): 104%

Nc1cccc2c(OCCO)cccc12 [CBK001976C]
viability at 28.5 h, 10 µM (in vitro [1]): 91.8%
activity at 1 µM [2]: 92.4%
activity at 5 µM [2]: 76.5%
activity at 10 µM [2]: 45.6%
activity at 1 µM [3]: 82.7%
activity at 5 µM [3]: 72.9%
activity at 10 µM [3]: 30.7%
viability at 28.5 h, 1 µM (in vitro [4]): 92.9%
viability at 28.5 h, 5 µM (in vitro [4]): 89%
viability at 28.5 h, 10 µM (in vitro [4]): 85.7%

CC(NC(=O)N(Cc1ccccc1C(F)(F)F)CC(C)(C)CN)c1cccc2ccccc12 (centres unmarked) [CBK002422C]
viability at 28.5 h, 10 µM (in vitro [1]): 91.9%
activity at 1 µM [2]: 112%
activity at 5 µM [2]: 51.5%
activity at 10 µM [2]: 34.5%
activity at 1 µM [3]: 78.4%
activity at 5 µM [3]: 41%
activity at 10 µM [3]: 12.2%
viability at 28.5 h, 1 µM (in vitro [4]): 90.1%
viability at 28.5 h, 5 µM (in vitro [4]): 94.1%
viability at 28.5 h, 10 µM (in vitro [4]): 101%

Cc1ccc(NC(=O)N(Cc2ccc(-c3ccccc3)cc2)CC(C)(C)CN)c(C)c1 [CBK002428C]
viability at 28.5 h, 10 µM (in vitro [1]): 94.9%
activity at 1 µM [2]: 126%
activity at 5 µM [2]: 87.3%
activity at 10 µM [2]: 46.1%
activity at 1 µM [3]: 115%
activity at 5 µM [3]: 68.5%
activity at 10 µM [3]: 10.7%
viability at 28.5 h, 1 µM (in vitro [4]): 90.2%
viability at 28.5 h, 5 µM (in vitro [4]): 88.8%
viability at 28.5 h, 10 µM (in vitro [4]): 86.4%

Cc1ccc(NC(=O)n2ccc3c(N4CCNCC4)cccc32)cc1[N+](=O)[O-] [CBK003747C]
viability at 28.5 h, 10 µM (in vitro [1]): 81.4%
activity at 1 µM [2]: 105%
activity at 5 µM [2]: 78.4%
activity at 10 µM [2]: 44.4%
activity at 1 µM [3]: 75.6%
activity at 5 µM [3]: 59.3%
activity at 10 µM [3]: 30.3%
viability at 28.5 h, 1 µM (in vitro [4]): 89.8%
viability at 28.5 h, 5 µM (in vitro [4]): 85.5%
viability at 28.5 h, 10 µM (in vitro [4]): 76.7%

CC(N)C(=O)NC1CCN(c2nc3c(cc2F)c(=O)c(C(=O)O)cn3C23CC(C2)C3)C1 (centres unmarked) [CBK016632]
viability at 28.5 h, 10 µM (in vitro [1]): 80.5%
activity at 1 µM [2]: 15.3%
activity at 5 µM [2]: 3.24%
activity at 10 µM [2]: 7.52%
activity at 1 µM [3]: 11.5%
activity at 5 µM [3]: 1.17%
activity at 10 µM [3]: 0.494%
viability at 28.5 h, 1 µM (in vitro [4]): 90.2%
viability at 28.5 h, 5 µM (in vitro [4]): 89.5%
viability at 28.5 h, 10 µM (in vitro [4]): 87%

COCCCNS(=O)(=O)c1ccc(-n2ncc(Cl)c(Cl)c2=O)cc1 [CBK305039]
activity at 1 µM [2]: 78.8%
activity at 5 µM [2]: 24.5%
activity at 10 µM [2]: 21.2%
activity at 1 µM [3]: 73.2%
activity at 5 µM [3]: 2.13%
viability at 28.5 h, 1 µM (in vitro [4]): 97.7%
viability at 28.5 h, 5 µM (in vitro [4]): 32.2%
viability at 28.5 h, 10 µM (in vitro [4]): 0%

Cc1ccccc1Nc1nc(N)nc(CN2CCCC(C(F)(F)F)C2)n1 (centres unmarked) [CBK305073]
activity at 1 µM [2]: 153%
activity at 5 µM [2]: 120%
activity at 10 µM [2]: 139%
activity at 1 µM [3]: 144%
activity at 5 µM [3]: 60.7%
activity at 10 µM [3]: 97.8%
viability at 28.5 h, 1 µM (in vitro [4]): 96.6%
viability at 28.5 h, 5 µM (in vitro [4]): 101%
viability at 28.5 h, 10 µM (in vitro [4]): 97.7%

O=C(NCCCn1ccnc1)N1CCN(Cc2ccc(Cl)cc2)CC1 [CBK305894]
activity at 1 µM [2]: 143%
activity at 5 µM [2]: 148%
activity at 10 µM [2]: 147%
activity at 1 µM [3]: 118%
activity at 5 µM [3]: 87%
activity at 10 µM [3]: 78.9%
viability at 28.5 h, 1 µM (in vitro [4]): 90.1%
viability at 28.5 h, 5 µM (in vitro [4]): 93.5%
viability at 28.5 h, 10 µM (in vitro [4]): 89.5%

O=C(NS(=O)(=O)c1cccc(-c2nnco2)c1)C1CC1C1CCCCC1 (centres unmarked) [CBK305924]
activity at 1 µM [2]: 129%
activity at 5 µM [2]: 146%
activity at 10 µM [2]: 143%
activity at 1 µM [3]: 120%
activity at 5 µM [3]: 151%
activity at 10 µM [3]: 119%
viability at 28.5 h, 1 µM (in vitro [4]): 91%
viability at 28.5 h, 5 µM (in vitro [4]): 99.4%
viability at 28.5 h, 10 µM (in vitro [4]): 94.7%
